# Source: patent US20250032658A1, “SYSTEMS AND METHODS FOR NEUTRALIZATION OF AIRBORNE ALLERGENS WITH ORGANIC ACIDS” (The Clorox Company, priority 2023, published 2025)
# Read-outs that look alike come from different tables or passages of the source.
# Tests used:
# [1] = room temperature and standard pressure; cited from earlier work
# [2] = cited from earlier work
# [3] = pKa / acid form of lactic acid; format: physicochemical; settings: at a pH of 2.2
# Text: In some example embodiments, the pH of the anti-allergen formulations can be kept low. A low pH can enhance the organic acid efficacy (e.g., lactic acid efficacy) in neutralization of airborne allergens. Typically, pH is kept a least 1 unit below pKa of the organic acid to ensure majority (at least 90%) of acid stays in the active (conjugate acid) form. […].
Compound,Vapor Pressure [1] [Pa],Solubility in water ([2]; at ~20° C.),Solubility in water [2],lactic acid in the acidic form [3]
CC(=O)O [acetic acid],2080,,,
O=C(O)CCCCC(=O)O [adipic acid],9.70,,,
O=C(O)c1ccccc1 [benzoic acid],0.11,,,
CCCC(=O)O [butyric acid],100,,,
O=C(O)CC(O)(CC(=O)O)C(=O)O [citric acid],0.000002,,,
O=C(O)/C=C/C(=O)O [fumaric acid],,0.7 g of compound in 100 g of water,,
NCC(=O)O [glycine],0.000017,,,
O=C(O)CO [glycolic acid],0.41,,,
CCCCCCC(=O)O [heptanoic acid],1.35,0.2 g of compound in 100 g of water,,
CCCCCC(=O)O [hexanoic acid],5.80,,1.03 g of compound in 100 g of water,
CC(O)C(=O)O (stereo not drawn) [lactic acid],10.00,,,at least 95%
CC(=O)CCC(=O)O [levulinic acid],0.374,79.13 g of compound in 100 g of water,,
O=C(O)/C=C\C(=O)O [maleic acid],,47.88 g of compound in 100 g of water,,
O=C(O)CC(O)C(=O)O (stereo not drawn) [malic acid],0.000004,64.7 g of compound in 100 g of water,,
O=C(O)CC(=O)O [malonic acid],0.00049,,,
CS(=O)(=O)O [methane sulfonic acid],0.048,100 g of compound in 100 g of water,,
CCCCCCCC(=O)O [octanoic acid],0.49,,,
CCC(=O)O [propionic acid],390,,,
CC(=O)C(=O)O [pyruvic acid],172,100 g of compound in 100 g of water,,
C/C=C/C=C/C(=O)O [sorbic acid],0.018,0.156 g of compound in 100 g of water,,
CCCCC(=O)O [valeric acid],100,3.75 g of compound in 100 g of water,,
